Columns and labels:
5-HT1A receptor = target: T1, 5-HT1A receptor (Rattus norvegicus, UniProt P19327); test: In vitro competitive binding test to 5-HT1A receptor ([3H]-8-OH-DPAT, rat cerebral cortex membranes); details: 10 μmol/L compound; hydrochloride salts; rat cerebral cortex membrane; unit (I %); read-out: 5-HT1A affinity [3H]-8-OH-DPAT (inhibition rate of radioligand binding)
T1 construct: The supernatant is discarded and the precipitate (membrane receptor) is stocked; from tissue; host or cells: SD rat cerebral cortex membranes
T1 sequence (P19327 1-422): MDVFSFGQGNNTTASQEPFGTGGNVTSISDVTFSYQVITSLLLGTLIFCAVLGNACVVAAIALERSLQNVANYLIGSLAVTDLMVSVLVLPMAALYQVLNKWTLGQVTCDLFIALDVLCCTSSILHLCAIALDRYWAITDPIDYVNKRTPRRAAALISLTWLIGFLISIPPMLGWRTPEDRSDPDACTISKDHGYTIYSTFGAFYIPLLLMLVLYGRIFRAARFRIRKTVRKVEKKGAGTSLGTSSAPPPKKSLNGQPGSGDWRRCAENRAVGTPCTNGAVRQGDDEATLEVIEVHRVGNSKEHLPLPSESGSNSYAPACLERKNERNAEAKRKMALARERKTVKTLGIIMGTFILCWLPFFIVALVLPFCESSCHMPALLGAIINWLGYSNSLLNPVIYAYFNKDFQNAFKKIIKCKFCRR
Method: (§1) Animals: clean grade SD rats, female and male, 250-300 g, purchased from Nanjing QingLongshan animal breeding center.
(§2) Radioligand: [^3H]-8-OH-DPAT, [^3H]-Ketanserin, purchased from PerkinElmer company; 5-HT and Methysergide, purchased from Sigma company.
Preparation of 5-HT1A buffer solution: Tris-HCl buffer solution (0.05M, 1000 ml) is added with certain amount of ascorbic acid, pargyline and CaCl2, to give final concentrations of 0.1%(ascorbic acid), 10 um (pargyline) and 4 mM (CaCl2) separately.
(§3) Preparation of radioligand: 50 μl mother liquor is diluted to 5 ml with anhydrous ethanol, and stocked for use.
(§4) Preparation of non-labeling ligand: appropriate amounts of 5-HT and Methysergide are dissolved in ultrapure water to give solutions with final concentrations of 2*10^−5M respectively.
(§5) Preparation of solutions of various test drugs: appropriate amount of each drug is first diluted to 1 ml with ultrapure water as stock solution. When needed, 10 μl of the stock solution is diluted to 1 ml to reach a level of 10^−5M.
(§6) Rats are decapitated to get the brains. The target tissues (left and right cerebral cortex) are separated on ice, added with 10-fold volume (V/W) of ice-cold buffer, and homogenized with tissue Homogenizer for several seconds 3 times to form tissue homogenate. The tissue homogenate is centrifuged with low temperature superb centrifuge (12000 r/min) 3 times, with each for 20 minutes. The supernatant is discarded and the precipitate (membrane receptor) is stocked in −80° C. ultralow temperature freezer.
(§7) The membrane receptor is added with certain volume of ice-cold buffer and homogenized to make membrane receptor solutions at certain concentrations.
(§8) Various reaction solutions are added in the following sequences and ratios:
(§9) Total binding tube: 100 μl membrane receptor+100 μl buffer+10 μl radioligand
(§10) Non-specific tube: 100 μl membrane receptor+100 μl non-labeling ligand+10 μl radioligand
(§11) Test compound tube: 100 μl membrane receptor+100 μl drug solution+10 μl radioligand
(§12) Above tubes are put in 37° C. water bath immediately after finishing adding radioligand into each of them and then incubated for 25 min. After 25 min, the tubes are put in ice water to quench the reaction. Each tube is poured into suction filtration device to filter, and the filter membrane is washed with 5-10 ml ice-cold buffer twice. The filter membrane is dried in 85° C. oven, and then put into test tubes, and added with certain amount of scintillation liquid to soak overnight. Radioactivity is determined using liquid scintillation counter.
(§13) Each compound is tested in duplicate, and the tests are carried out independently twice.

5-HT2A receptor = target: T2, 5-HT2A receptor (Rattus norvegicus, UniProt P14842); test: In vitro competitive binding test to 5-HT2A receptor ([3H]-Ketanserin, rat cerebral cortex membranes); details: 10 μmol/L compound; hydrochloride salts; rat cerebral cortex membrane; unit (I %); read-out: 5-HT2A affinity [3H]-Ketanserin (inhibition rate of radioligand binding)
T2 construct: The supernatant is discarded and the precipitate (membrane receptor) is stocked; from tissue; host or cells: SD rat cerebral cortex membranes
Method: as §1, §2
Preparation of 5-HT2A buffer solution: Tris (6.05 g) is dissolved in ultrapure water (1000 ml). PH is adjusted to 7.4 with HCl. Tris-HCl buffer solution (0.05M) is used.
as §3, §4, §5, §6, §7, §8, §9, §10, §11, §12, §13

[1] = system: rat formalin induced pain model; test: Rat formalin induced pain model (leg-raising times); type: in vivo, SD rats; details: formalin 1 h later, Mean ± SD, n=10
Source text: Rat formalin induced pain model is used to test in vivo analgesic effect of hydrochloride of compound III-10.
Rat formalin induced pain model is established by Dubuisson and Dennis in 1977. It can simulate some characteristics of human pains after damages, and its persistent tension pain is similar to common clinical chronic pains. Its experimental results have excellent repeatability, and it is considered to be universally accepted pain model which is more reliable than short-term mechanical or thermal stimulation models. It has been generally used in investigation and determination of pain mechanism, pain physiology and pharmacology, screening of the analgesic effects of drugs and evaluation of analgesic drugs.
Test compounds are prepared to relevant doses with 0.5% CMC-Na before use.
Formaldehyde solution: batch number HN20041109, HuaDong reagent industrial company. In experiment, it is diluted to 5% formaldehyde solution with 0.9% sodium chloride injection.
90 SD rats of weight (240-350 g), half female and half male, are fed for I week to adapt the environment, with 5 in each cage during feeding, the rats are fed under standard condition during experiments with free access to water and food.
90 SD rats of weight 240-350 g are randomly divided into 9 groups which are negative control group, model group, gabapentin group, high, median and low dosage group of each compound respectively, with 10 rats in each group, half female and half male. Relevant test compounds are given by intragastric administration, and 5% formalin (50 ul) is subcutaneously injected at the left rear foot in 1 h to model, formation of pichu indicates a successful modeling. 0.5% (weight percentage) CMC-Na is given by intragastric administration in negative control group, and normal saline (50 ul) is subcutaneously injected at the bottom of right rear foot in 1 h. After modeling, the leg-raising times in 1-2 minutes and 5-6 minutes are observed. The time period 10-60 minutes are divided into 5 minutes intervals, and the leg-raising times of the first minute of each interval (10-11, 15-16, 20-21, 25-26, 30-31, 35-36, 40-41, 45-46, 50-51, 55-56, 60-61) are observed.
Measuring index is expressed as mean±standard deviation (Mean±SD), comparison is analyzed with One-way ANOVA.

[2] = Acute toxicity study, single drench to mice (LD50, Bliss method); details: mouse, in vivo, oral, hydrochloride
Source text: Bliss method is used for statistics.

[3] = system: Salmonella typhimurium histidine auxotrophic mutants TA97, TA98, TA100 and TA102; test: Bacterial reverse mutation test (Ames test); details: −S9 and +S9, all dosages
Method: Strains: Salmonella typhimurium histidine auxotrophic mutants TA97, TA98, TA100 and TA102.
Results: the experiments include two parts of −S9 and +S9. In the test system without S9, TA98 5000 μg/dish has antibacterial activity, and in the test system with S9, TA97 5000 μg/dish has antibacterial activity. Other dosages have no antibacterial activity to any of the strains, and the growth background is excellent. […] Ames test is negative.

hSERT = hSERT (Homo sapiens, UniProt P31645); test: In vitro inhibition of serotonin reuptake ([3H]-5-HT) in cells stably expressing hSERT
hSERT, sequence (P31645 whole entry): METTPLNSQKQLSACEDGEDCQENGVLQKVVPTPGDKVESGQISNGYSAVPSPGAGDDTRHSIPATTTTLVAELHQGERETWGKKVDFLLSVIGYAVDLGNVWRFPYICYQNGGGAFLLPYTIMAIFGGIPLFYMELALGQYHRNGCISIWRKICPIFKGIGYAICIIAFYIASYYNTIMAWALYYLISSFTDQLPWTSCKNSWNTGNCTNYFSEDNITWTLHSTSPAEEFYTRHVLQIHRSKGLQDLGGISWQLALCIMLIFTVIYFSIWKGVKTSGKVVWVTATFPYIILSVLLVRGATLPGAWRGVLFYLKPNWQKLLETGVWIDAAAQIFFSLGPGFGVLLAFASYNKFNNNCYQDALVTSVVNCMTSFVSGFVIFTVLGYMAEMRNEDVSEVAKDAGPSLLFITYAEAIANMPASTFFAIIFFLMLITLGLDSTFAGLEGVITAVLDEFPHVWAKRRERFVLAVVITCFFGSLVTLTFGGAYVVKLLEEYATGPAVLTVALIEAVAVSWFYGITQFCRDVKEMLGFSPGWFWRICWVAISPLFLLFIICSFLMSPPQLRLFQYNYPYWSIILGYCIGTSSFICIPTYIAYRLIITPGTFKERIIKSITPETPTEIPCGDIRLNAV
Method: Positive control compound: fluoxetine.
Sample treatment: about 1 mg of compound is weighted and added with relative amount of DMSO to prepare 10^−2M stock solution. Before use, the stock solution is diluted with HBSS buffer to relative concentrations. Each sample is dissolved in DMSO completely. The dilution is clear and without obvious cloudy and formation of precipitate after adding with buffer.
(1) Cells which can stably express hSERT are seeded into 24-well plates respectively.
(2) Experiments are started when the cell confluence reaches 80-90%.
(3) Liquids in the plates are discarded, the plates are washed with PBS twice at room temperature.
(5) Plates are incubated at 37° C. for 10 min after slight oscillation.
(6) Then 20 μl radioisotope is added (cpm: about 20000).
(7) Plates are incubated at 37° C. for 5 min after slight oscillation.
(8) Liquids in the plates are discarded, the plates are washed with ice-cold PBS twice, all the liquids in the plates are removed away.
(9) NaOH (2M, 100 μl) is added into each well to lyse the cells. All the lysates are combined and put on GF/C glass fiber filter paper.
(10) The filter papers are dried and put in 0.5 ml centrifuge tube, 500 μl lipid soluble scintillation liquid are added. Radioactivity is determined by MicroBeta liquid scintillation counter. Each concentration is tested intriplicate, and tests are carried out independently twice.
Test concentration is 10 μmol/L. The positive drug provided is set as control (10 μmol/L) in each experiment. The experimental processes are the same as the above process.

T2 sequence (P14842 whole entry): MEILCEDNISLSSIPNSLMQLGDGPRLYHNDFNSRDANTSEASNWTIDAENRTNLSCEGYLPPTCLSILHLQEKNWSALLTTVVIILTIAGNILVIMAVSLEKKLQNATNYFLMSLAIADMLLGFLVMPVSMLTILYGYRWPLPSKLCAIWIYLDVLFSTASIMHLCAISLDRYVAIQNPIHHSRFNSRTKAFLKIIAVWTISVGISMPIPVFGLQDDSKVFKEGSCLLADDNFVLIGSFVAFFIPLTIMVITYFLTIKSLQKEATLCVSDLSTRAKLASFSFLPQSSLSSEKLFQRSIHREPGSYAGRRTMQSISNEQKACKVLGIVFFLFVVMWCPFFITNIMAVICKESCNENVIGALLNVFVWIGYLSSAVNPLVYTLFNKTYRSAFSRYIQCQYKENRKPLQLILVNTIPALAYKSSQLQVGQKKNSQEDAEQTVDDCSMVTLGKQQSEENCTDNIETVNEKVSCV

## CN(CCCN1CCN(c2cccc(Cl)c2)CC1)c1cccc(C#N)c1 [III-10, 3-((3-(4-(3-chlorophenyl)piperazin-1-yl)propyl)methylamino)benzonitrile]
5-HT1A receptor
  inhibition at 10 µM: 109%
5-HT2A receptor
  inhibition at 10 µM: 145%
[1]; 40 mg/kg intragastric
  phase I times (leg-raising times): 21.23 ± 11.24 time
[1]; 160 mg/kg intragastric
  phase I times (leg-raising times): 21.90 ± 15.48 time
[2]
  LD50: 1500 mg/kg
[3]
  Ames test (colony reverse mutations): negative
hSERT
  IC50: 138 ± 35 nM
  inhibition effect to 5-HT reuptake compared with fluoxetine: more potent than that of fluoxetine
hSERT; read-out: Inhibition rates of SERT reuptake [3H]-5-HT
  inhibition at 10 µM: 94.3%
